Laboratory results taken from patent US20260167621A1, “Three Cluster Galactose Type Compound, Conjugate, Making Method and Use Thereof” (GUANGZHOU RIBOBIO CO., LTD., priority 2023, published 2026).
pKd: −log10 of the molar value.

Legend:
PCSK9 mRNA = test: Knock down effect on the expression of PCSK9 mRNA in Hep3B cell; type: cell-based, human; conditions: Lipofectamine 3000 transfection, qPCR, actin as reference gene
Procedure: Referring to Chinese Patent Application No. CN109957567B, the synthesized siRNA sequences were shown below:
The compound G2, G4, G5 obtained from the examples 2, 4, 5, bound to the above mentioned siRNA respectively to form conjugates which were shown in Table 4.
Hep3B cell (ATCC, HB-8064) was cultured, the cell density was about 30% to 50% before transfection and relatively uniformly.
Each conjugate samples of Table 4 were prepared to 20 μM storage solution, and were set as experimental groups. Except the experimental groups, normal cell control group (Blank), transfection reagent control group (Mock), negative control group 1 (NC001, Ribobio, siM21 1215011852) and negative control group 2 (NC002, Ribobio, siM21 1215011852) were also set. Referring to the specification of Lipofectamine™ 3000 transfection reagent (Thermo Fisher, L300001), cells were transfected. Both the experimental groups and the control groups had 3 replicates.
The total RNA extraction was performed with reference to the specification of MagZol Reagent (Magen, R4801).
The reverse transcription was performed with reference to the specification of riboSCRIPT™ Reverse Transcription Kit (Ribobio, C11027-2).
Human house keeping gene actin was used for reference gene, forward primer sequence of actin gene: 5′-[…]-3′ (SEQ ID NO: 5), reverse primer sequence: 5′-[…]-3′ (SEQ ID NO: 6); forward primer sequence of human PCSK9 gene: 5′-[…]-3′ (SEQ ID NO: 7), reverse primer sequence: 5′-[…]-3′ (SEQ ID NO: 8). 2×SYBR Green Mix (Ribobio, C10712F −1 m l) and fluorescence quantitative PCR instrument (BioRad, CFX96) were used to perform real time fluorescence quantitative PCR reaction. After PCR reaction, the Ct deviation of 9 replicates of a sample (3 transfection replicates×3 qPCR duplicates) should be ±0.5. Then CFX 2.1 software was used for quantitative analysis.

[1] = target: T1, Hepatocyte ASGPR receptor (Homo sapiens, UniProt P07306); test: Binding affinity test with hepatocyte ASGPR receptor (Cy5 flow cytometry, binding saturation curve); conditions: for Bmax: average Cy5 fluorescence intensity of live cells minus blank, one site binding (hyperbola) fit; for Bmax / pKd: 0.9-100 nM, 2 hours on ice; for pKd: one site binding (hyperbola) fit of Cy5 fluorescence, read-out: Kd (dissociation equilibrium constant); for binding affinity with ASGPR receptor: statement in words from Table 3
T1 construct: endogenous in cells
T1 sequence (P07306 1-291): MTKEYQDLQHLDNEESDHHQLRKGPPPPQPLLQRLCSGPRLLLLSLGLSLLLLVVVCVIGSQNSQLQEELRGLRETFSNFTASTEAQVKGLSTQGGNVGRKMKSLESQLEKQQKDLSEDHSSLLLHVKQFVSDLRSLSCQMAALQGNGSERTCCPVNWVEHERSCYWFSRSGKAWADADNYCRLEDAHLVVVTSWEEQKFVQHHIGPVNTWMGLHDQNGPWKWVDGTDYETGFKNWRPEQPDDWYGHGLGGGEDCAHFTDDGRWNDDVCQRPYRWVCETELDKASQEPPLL
T1 sequence (P07307 1-311 partner): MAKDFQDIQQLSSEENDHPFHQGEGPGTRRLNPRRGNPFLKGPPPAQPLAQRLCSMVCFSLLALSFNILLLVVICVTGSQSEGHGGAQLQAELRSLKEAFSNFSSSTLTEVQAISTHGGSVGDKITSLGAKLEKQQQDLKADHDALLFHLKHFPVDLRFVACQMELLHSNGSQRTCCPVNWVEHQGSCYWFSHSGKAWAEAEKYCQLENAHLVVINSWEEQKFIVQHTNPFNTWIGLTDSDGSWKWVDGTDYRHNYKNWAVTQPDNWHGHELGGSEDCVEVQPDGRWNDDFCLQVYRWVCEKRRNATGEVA
Procedure: Embodiment 1: Binding Affinity Test with Hepatocyte ASGPR Receptor
The compound G1, G4, G5 obtained from the examples 1, 4, 5, bound to the above mentioned siRNA respectively to form conjugates which were shown in Table 1.
G1-12, G4-12, G5-12 (1 uM) were diluted respectively in a gradient according to the following Table 2.
The cell concentration was diluted by DMEM culture medium with 2% FBS to 4*10^5 cells/mL.
200 μL cells of each sample and 200 μL siRNA were mixed uniformly, 200 μL cells of the blank control group and 200 μL culture medium were mixed uniformly, and were added in 3 wells of 96-well plate with U-shaped bottom, 100 μL each well. Samples of each concentration of all siRNA were placed in the ice box after sampling, and were placed in decolorization shaker and incubated in dark for 2 hours.
50 g of 96-well plate with U-shaped bottom was centrifuged for 2 minutes at 4° C. 80 μL supernatant was aspirated and discarded by pipette, 10 μg/mL propidium iodide was prepared by using of PBS with 2% FBS, 100 μL PI reagent was added in each well and was stained for 15 minutes. After staining, 50 g of 96-well plate with U-shaped bottom was centrifuged for 2 minutes at 4° C. After washed by PBS with 2% FBS for twice, 100 μL PBS with 2% FBS was added for resuspension, flow cytometer was used to test and count the average Cy5 fluorescence intensity of live cell population.

Substance | PCSK9 mRNA relative expression value, the average relative expression (PCSK9 mRNA) | Bmax [1] | pKd [1] | binding affinity with ASGPR receptor [1]
G2-34: G2 bound to 5' end of SEQ ID NO: 3, paired with 5'-phos* SEQ ID NO: 4 (PCSK9 siRNA); structure Z2 (sense GGUCUGGAAUGCAAAGUCA; antisense UGACUUUGCAUUCCAGACC; G2 ligand 5'; 5'-phosphate; modified_base join(1,4,5,6,10,11,12,13,14,15,16) OTHER; 2'-O-methyl modification; modified_base join(2,3,17,18,19) OTHER; thiophosphorylated skeleton modification and 2'-O-methyl modification; modified_base join(7,8,9) OTHER; 2'-fluoro modification; modified_base join(1,5,7,9,11,13,15) OTHER; modified_base join(3,17,18,19) OTHER; modified_base 2 OTHER; thiophosphorylated skeleton modification and 2'-fluoro modification; modified_base join(4,6,8,10,12,14,16) OTHER) [Compound G2-34] | 0.34 |  |  | 
G4-12: G4 bound to 5' end of SEQ ID NO: 1 via C6 amino modification, paired with 5'-Cy5 SEQ ID NO: 2; structure Z4 (sense GUAUGUUGCCCGUUUGUCC; antisense GGACAAACGGGCAACAUACCU; G4 ligand via C6 amino; Cy5 label; modified_base join(1,5,8,12,16) OTHER; deoxyribonucleotide modification; modified_base 3 OTHER; thiophosphorylated skeleton modification and deoxyribonucleotide modification; modified_base join(4,6,7,9,10,11,13,14,15,17) OTHER; 2'-fluoro modification; modified_base join(2,18,19) OTHER; thiophosphorylated skeleton modification and 2'-fluoro modification; modified_base join(1,5,7,9,11,13,15,17) OTHER; 2'-O-methyl modification; modified_base join(3,19,20,21) OTHER; thiophosphorylated skeleton modification and 2'-O-methyl modification; modified_base join(2,4) …) [Compound G4-12] |  | 239297 | 8.20 | reach a higher level
G4-34: G4 bound to 5' end of SEQ ID NO: 3 via C6 amino modification, paired with 5'-phos* SEQ ID NO: 4; structure Z4 (sense GGUCUGGAAUGCAAAGUCA; antisense UGACUUUGCAUUCCAGACC; G4 ligand via C6 amino; 5'-phosphate; modified_base join(1,4,5,6,10,11,12,13,14,15,16) OTHER; 2'-O-methyl modification; modified_base join(2,3,17,18,19) OTHER; thiophosphorylated skeleton modification and 2'-O-methyl modification; modified_base join(7,8,9) OTHER; 2'-fluoro modification; modified_base join(1,5,7,9,11,13,15) OTHER; modified_base join(3,17,18,19) OTHER; modified_base 2 OTHER; thiophosphorylated skeleton modification and 2'-fluoro modification; modified_base join(4,6,8,10,12,14,16) OTHER) [Compound G4-34] | 0.41 |  |  | 
G5-12: G5 bound to 5' end of SEQ ID NO: 1 via C6 amino modification, paired with 5'-Cy5 SEQ ID NO: 2; structure Z5 (sense GUAUGUUGCCCGUUUGUCC; antisense GGACAAACGGGCAACAUACCU; G5 ligand via C6 amino; Cy5 label; modified_base join(1,5,8,12,16) OTHER; deoxyribonucleotide modification; modified_base 3 OTHER; thiophosphorylated skeleton modification and deoxyribonucleotide modification; modified_base join(4,6,7,9,10,11,13,14,15,17) OTHER; 2'-fluoro modification; modified_base join(2,18,19) OTHER; thiophosphorylated skeleton modification and 2'-fluoro modification; modified_base join(1,5,7,9,11,13,15,17) OTHER; 2'-O-methyl modification; modified_base join(3,19,20,21) OTHER; thiophosphorylated skeleton modification and 2'-O-methyl modification; modified_base join(2,4) …) [Compound G5-12] |  | 199232 | 8.43 | reach a higher level
G5-34: G5 bound to 5' end of SEQ ID NO: 3 via C6 amino modification, paired with 5'-phos* SEQ ID NO: 4; structure Z5 (sense GGUCUGGAAUGCAAAGUCA; antisense UGACUUUGCAUUCCAGACC; G5 ligand via C6 amino; 5'-phosphate; modified_base join(1,4,5,6,10,11,12,13,14,15,16) OTHER; 2'-O-methyl modification; modified_base join(2,3,17,18,19) OTHER; thiophosphorylated skeleton modification and 2'-O-methyl modification; modified_base join(7,8,9) OTHER; 2'-fluoro modification; modified_base join(1,5,7,9,11,13,15) OTHER; modified_base join(3,17,18,19) OTHER; modified_base 2 OTHER; thiophosphorylated skeleton modification and 2'-fluoro modification; modified_base join(4,6,8,10,12,14,16) OTHER) [Compound G5-34] | 0.33 |  |  | 
